Experimental findings from article PMC8686256, “DZNep promotes mouse bone defect healing via enhancing both osteogenesis and osteoclastogenesis” (Stem Cell Research & Therapy, 2021) are described below.

Type in all cases: cell-based, mouse
One experiment has as its system c-FOS and NFATc1. In words: Western blotting of c-FOS and NFATc1 in BMMs. The procedure: (§1) To explore the variation of the proteins on long-term activated signaling, BMMs were cultured in α-MEM containing M-CSF (30 ng/ml) and RANKL (50 ng/ml) at a density of 2 × 10^5 cells/well on 6-well plates. After 24 h, the BMMs were treated with or without 25 nM DZNep for 0, 1, 3, and 5 days, and total protein was obtained, respectively, on these specific time points. To determine the effect of DZNep on the protein of short-time activated phosphorylated, RAW264.7 cells were cultured in α-MEM at a density of 5 × 10^5 cells/well on 6-well plates. One day later, the cells were treated with the serum-free α-MEM in the presence or absence of DZNEP for 3 hand then stimulated with 50 ng/mL RANKL for 0, 10, 20, 30, and 60 min. To determine the efficiency of EZH2 shRna, BMMs were cultured in α-MEM at a density of 5 × 10^5 cells/well on 6-well plates. One day later, the cells were treated with negative control shRNA or different EZH2 shRNA for 2 days. To determine the efficiency of Foxc1 siRna, BMMs were cultured in α-MEM at a density of 5 × 10^5 cells/well on 6-well plates. […] After TBST wash for 3 times, the secondary fluorescence antibodies were incubated without light for 1 h at room temperature and the reactivity was visualized by using Odyssey V3.0 image scanning (Li-COR. Inc., Lincoln, NE, USA). […]

The next experiment has as its system MAPKs signaling pathways. The experiment can be described thus: Western blotting of MAPKs signaling pathways. Conditions: RAW264.7, 25 nM pretreatment, vs control. The procedure: as §1
On the technique in general: Immunoblotting shows a protein as a band on a membrane.

The subject of experiment [1] is EZH2 and H3K27me3. The experiment can be described thus: Western blotting of EZH2 and H3K27me3 in BMMs. The conditions noted are these: 25 nM; 0, 1, 3, 5 days with RANKL, vs control. The procedure: as §1
For experiment [2], the system named is EZH2 and H3K27me3. In words: Western blotting of EZH2, H3K27me3 and GSK-3β in BMSC.

On to `Nc1nccc2c1ncn2C1C=C(CO)C(O)C1O` (stereo not drawn) [DZNep, 3-Deazaneplanocin], for which the “expression of c-FOS and NFATc1 (western blot)” value in the experiment on c-FOS and NFATc1 (25 nM, 0, 1, 3, 5 days, vs control) is on record as “further enhanced”. In addition, in the experiment on c-FOS and NFATc1 (RANKL, 5 days), the “c-FOS and NFATc1 expression (western blot), various concentrations” value is listed as “upregulated”. Besides, the “phosphorylation of JNK, p38, and ERK” value in the experiment on MAPKs signaling pathways is listed as “comparable”. Also, in the experiment on EZH2 and H3K27me3 [1], the “EZH2 and H3K27me3 expression in BMMs” value is recorded as “decreased at a time manner”. Besides, the “EZH2 and H3k27me3 expression in BMSC” value in the experiment on EZH2 and H3K27me3 [2] (0, 25, 50, 100 nM, 24 h, vs control) is recorded as “dose-dependent decreased”. Moreover, in the experiment on EZH2 and H3K27me3 [2] (BMSC), the “phosphorylation level of GSK-3β” value is “no significant change”.
